Laboratory results published in patent publication US20200369630A1, “HERBICIDALLY ACTIVE 3-PHENYL-5-TRIFLUOROMETHYLISOXAZOLINE-5-CARBOXAMIDES OF CYCLOPENTYLCARBOXYLIC ACIDS AND ESTERS” (Bayer Aktiengesellschaft, priority 2017, published 2020).

How the values were obtained:
Test in all cases: Post-emergence herbicidal action
Assay type in all cases: in vivo
DIGSA = details: Table C3, post-emergence, 320 g/ha, rated visually after about 3 weeks
Procedure: (§1) Seeds of monocotyledonous and dicotyledonous weeds and crop plants are placed in sandy loam in plastic or wood-fiber pots, covered with soil and cultivated in a greenhouse under controlled growth conditions. 2 to 3 weeks after sowing, the test plants are treated at the one-leaf stage. The compounds of the invention, formulated in the form of wettable powders (WP) or as emulsion concentrates (EC), are then sprayed onto the green parts of the plants as aqueous suspension or emulsion with addition of 0.5% additive at a water application rate of […] (converted). After the test plants had been kept in the greenhouse under optimum growth conditions for about 3 weeks, the activity of the preparations is rated visually in comparison to untreated controls. For example, 100% activity=the plants have died, 0% activity=like control plants.

SETVI: Setaria viridis = details: Table C3, post-emergence, 320 g/ha, rated visually after about 3 weeks
Procedure: as §1, with “[table] Seeds” for “Seeds”

VIOTR: Viola tricolor = details: Table C3, post-emergence, 320 g/ha, rated visually after about 3 weeks
Procedure: as §1, with “[table] Seeds” for “Seeds”

[1] = test system: ALOMY: Alopecurus myosuroides; details: rated visually after about 3 weeks
Procedure: as §1, with “[table] Seeds” for “Seeds”

[2] = test system: POLCO: Polygonum convolvulus; details: rated visually after about 3 weeks
Procedure: as §1, with “[table] Seeds” for “Seeds”

LOLRI: Lolium rigidum = details: rated visually after about 3 weeks
Procedure: as §1, with “[table] Seeds” for “Seeds”

HORMU: Hordeum murinum = details: rated visually after about 3 weeks
Procedure: as §1, with “[table] Seeds” for “Seeds”

[3] = test system: AMARE: Amaranthus retroflexus; details: rated visually after about 3 weeks
Procedure: as §1, with “[table] Seeds” for “Seeds”

AVEFA: Avena fatua = details: rated visually after about 3 weeks
Procedure: as §1, with “[table] Seeds” for “Seeds”

[4] = test system: ECHCG: Echinochloa crus-galli; details: rated visually after about 3 weeks
Procedure: as §1, with “[table] Seeds” for “Seeds”

VERPE: Veronica persica = details: rated visually after about 3 weeks
Procedure: as §1, with “[table] Seeds” for “Seeds”

STEME: Stellaria media = details: Table C2, post-emergence, dosage 320 (0.32 kg of active substance per hectare), rated visually after about 3 weeks
Procedure: as §1, with “[table] Seeds” for “Seeds”

[5] = Table C3, post-emergence, 320 g/ha
[6] = Table C2, post-emergence, dosage 320 (0.32 kg of active substance per hectare)

| SMILES | Herbicidal action against [%] DIGSA (DIGSA) [%] | Herbicidal action against [%] SETVI (SETVI: Setaria viridis) [%] | Herbicidal action against [%] VIOTR (VIOTR: Viola tricolor) [%] | Herbicidal action against [%] ALOMY [1, 5] [%] | Herbicidal action against [%] POLCO [2, 5] [%] | Herbicidal action against [%] LOLRI (LOLRI: Lolium rigidum; [5]) [%] | Herbicidal action against [%] HORMU (HORMU: Hordeum murinum; [5]) [%] | Herbicidal action against [%] AMARE [3, 5] [%] | Herbicidal action against [%] AVEFA (AVEFA: Avena fatua; [5]) [%] | Herbicidal action against [%] ECHCG [4, 5] [%] | Herbicidal action against [%] VERPE (VERPE: Veronica persica; [5]) [%] | Herbicidal action against [%] ALOMY [1, 6] [%] | Herbicidal action against [%] POLCO [2, 6] [%] | Herbicidal action against [%] LOLRI (LOLRI: Lolium rigidum; [6]) [%] | Herbicidal action against [%] HORMU (HORMU: Hordeum murinum; [6]) [%] | Herbicidal action against [%] STEME (STEME: Stellaria media) [%] | Herbicidal action against [%] AMARE [3, 6] [%] | Herbicidal action against [%] AVEFA (AVEFA: Avena fatua; [6]) [%] | Herbicidal action against [%] ECHCG [4, 6] [%] | Herbicidal action against [%] VERPE (VERPE: Veronica persica; [6]) [%] |
| --- | --- | --- | --- | --- | --- | --- | --- | --- | --- | --- | --- | --- | --- | --- | --- | --- | --- | --- | --- | --- |
| COC(=O)C1CCC(NC(=O)C2(C(F)(F)F)CC(c3cc(C)cc(F)c3)=NO2)C1 (mixture of isomers) [Example I-537] | 90 | 90 | 100 | 90 | 90 | 90 | 80 | 100 | 90 | 100 | 100 |  |  |  |  |  |  |  |  |  |
| CCOC(=O)C1CCC(NC(=O)C2(C(F)(F)F)CC(c3cc(C)cc(F)c3)=NO2)C1 (mixture of isomers) [Example I-543] |  |  |  |  |  |  |  |  |  |  |  | 90 | 100 | 90 | 80 | 80 | 100 | 100 | 90 | 90 |
| Cc1cc(F)cc(C2=NOC(C(=O)NC3CCC(C(=O)OCCCl)C3)(C(F)(F)F)C2)c1 (mixture of isomers) [Example I-574] | 80 | 90 | 80 | 100 | 80 | 90 | 80 | 100 | 100 | 90 | 90 |  |  |  |  |  |  |  |  |  |
| Cc1cc(F)cc(C2=NOC(C(=O)NC3CCC(C(=O)OCC(F)(F)F)C3)(C(F)(F)F)C2)c1 (mixture of isomers) [Example I-580] | 90 | 90 | 100 | 90 | 80 | 90 | 90 | 90 | 100 | 80 | 90 |  |  |  |  |  |  |  |  |  |
| COC(=O)C1CCC(NC(=O)C2(C(F)(F)F)CC(c3cc(C)cc(Cl)c3)=NO2)C1 (mixture of isomers) [Example I-802] |  |  |  |  |  |  |  |  |  |  |  | 90 | 100 | 90 | 80 | 90 | 90 | 100 | 80 | 90 |
| O=C(O)[C@@H]1CC[C@H](NC(=O)[C@@]2(C(F)(F)F)CC(c3cc(F)cc(F)c3)=NO2)C1 [Example I-11, (1R,3S)-3-({[(5R)-3-(3,5-difluorophenyl)-5-(trifluoromethyl)-4,5-dihydro-1,2-oxazol-5-yl]carbonyl}amino)cyclopentanecarboxylic acid] |  |  |  |  |  |  |  |  |  |  |  | 80 | 80 | 90 | 80 | 90 | 80 | 90 | 80 | 80 |
| CCOC(=O)[C@H]1CC[C@H](NC(=O)[C@@]2(C(F)(F)F)CC(c3cc(F)cc(F)c3)=NO2)C1 [Example I-42] |  |  |  |  |  |  |  |  |  |  |  | 80 | 80 | 90 | 90 | 90 | 80 | 90 | 80 | 80 |
| CCCOC(=O)[C@@H]1CC[C@H](NC(=O)[C@@]2(C(F)(F)F)CC(c3cc(F)cc(F)c3)=NO2)C1 [Example I-53] |  |  |  |  |  |  |  |  |  |  |  | 100 | 100 | 100 | 100 | 100 | 90 | 100 | 100 | 90 |
| CC(C)OC(=O)[C@@H]1CC[C@H](NC(=O)[C@@]2(C(F)(F)F)CC(c3cc(F)cc(F)c3)=NO2)C1 [Example I-67] |  |  |  |  |  |  |  |  |  |  |  | 100 | 90 | 100 | 100 | 100 | 90 | 100 | 90 | 90 |
| CC(C)(C)OC(=O)[C@@H]1CC[C@H](NC(=O)[C@@]2(C(F)(F)F)CC(c3cc(F)cc(F)c3)=NO2)C1 [Example I-95] |  |  |  |  |  |  |  |  |  |  |  | 90 | 90 | 100 | 90 | 90 | 80 | 100 | 80 | 80 |
| O=C(OCCCl)[C@@H]1CC[C@H](NC(=O)[C@@]2(C(F)(F)F)CC(c3cc(F)cc(F)c3)=NO2)C1 [Example I-109, 2-chloroethyl-(1R,3S)-3-({[(5R)-3-(3,5-difluorophenyl)-5-(trifluoromethyl)-4,5-dihydro-1,2-oxazol-5-yl]carbonyl}amino)cyclopentanecarboxylate] |  |  |  |  |  |  |  |  |  |  |  | 90 | 80 | 80 | 90 | 90 | 80 | 90 | 90 | 80 |
| O=C(OCC(F)(F)F)[C@@H]1CC[C@H](NC(=O)[C@@]2(C(F)(F)F)CC(c3cc(F)cc(F)c3)=NO2)C1 [Example I-123] |  |  |  |  |  |  |  |  |  |  |  | 90 | 90 | 100 | 90 | 90 | 80 | 90 | 80 | 80 |
